Test results reported in patent US8680087B2, “Macrocyclic amides, pharmaceutical compositions, preparation methods and uses thereof” (Yuxi Winhey Bio-Tech Co., Ltd., priority 2009, dated 2014).
In brackets after ≈: the same amount, converted by molar mass. Read-outs that look alike come from different tables or passages of the source.

Experiments:
Type in all cases: cell-based
Enterococcus faecalis = assay: Antibacterial activity test, standard dilution method (MIC); conditions: 24 hr and 48 hr, trypticase soy broth, 35° C.
Protocol: (§1) The following antibacterial activity test of WH-21091 was conducted to illustrate the antibacterial activity of WH-21091. Standard dilution method was adopted, and the measurement was conducted under 35° C. After culturing for 24 hours, the minimum inhibition concentrations (MICs) of WH-21091 were obtained.

Escherichia coli = assay: as above; conditions: 24 hr and 48 hr, trypticase soy broth, 35° C.
Protocol: as §1

Pseudomonas aeruginosa = assay: as above; conditions: 24 hr and 48 hr, trypticase soy broth, 35° C.
Protocol: as §1

[1] = tested on: S. aureus MSRA (clinical isolates of methicilllin-resistant strains); assay: as above; conditions: Staphylococcus aureus
Protocol: as §1

[2] = tested on: Staphylococcus epidermidis; assay: as above; conditions: 24 hr and 48 hr, trypticase soy broth, 35° C.
Protocol: as §1

Streptococcus pyogenes = assay: as above; conditions: 24 hr and 48 hr, trypticase soy broth, 35° C.
Protocol: as §1

[3] = tested on: breast cancer MCF-7 cells; assay: In vitro antitumor activity test (method of Skehan et al.); conditions: Homo sapiens, MCF7; MCF-7 breast cancer cells
Protocol: (§2) Following the method described by Skehan et al. (1990), in vitro antitumor activity tests of WH-21091 on human lung cancer H460, breast cancer MCF-7 and cervix cancer Hela cells were conducted.

cervix cancer Hela cells = assay: as above; conditions: Homo sapiens
Protocol: as §2

[4] = tested on: human lung cancer H460 cells; assay: as above; conditions: NCI-H460
Protocol: as §2

MIC ([1]; S. aureus MSRA, clinical isolates of methicilllin-resistant strains, 24 hr and 48 hr, trypticase soy broth, 35° C., read-out: MIC) | IC50 [3] | IC50 (cervix cancer Hela cells) | IC50 [4] | SMILES | MIC (Enterococcus faecalis) | MIC (Escherichia coli) | MIC (Pseudomonas aeruginosa) | MIC [2] | MIC (Streptococcus pyogenes) | MIC [1]
4 µg/mL (≈ 9.4 µM) | 0.81 µg/mL (≈ 1.9 µM) | 0.24 µg/mL (≈ 0.564 µM) | 0.1 µg/mL (≈ 0.235 µM) | CC1CC(C)CC(C(O)Cc2cccc(O)c2C(=O)O)NC(=O)C(O)C(O)C(O)C1 (stereo not drawn) [WH-21091] | 32 µg/mL (≈ 75.2 µM) | 4 µg/mL (≈ 9.4 µM) | > 32 µg/mL | 8 µg/mL (≈ 18.8 µM) | 4 µg/mL (≈ 9.4 µM) | –
– | – | – | – | CC[C@H]1OC(=O)[C@H](C)[C@@H](O[C@H]2C[C@@](C)(OC)[C@@H](O)[C@H](C)O2)[C@H](C)[C@@H](O[C@@H]2O[C@H](C)C[C@H](N(C)C)[C@H]2O)[C@](C)(O)C[C@@H](C)C(=O)[C@H](C)[C@@H](O)[C@]1(C)O [erythromycin, reference compound] | > 32 µg/mL | 1 µg/mL (≈ 1.36 µM) | > 32 µg/mL | 0.25 µg/mL (≈ 0.341 µM) | 0.03 µg/mL (≈ 0.0409 µM) | > 32 µg/mL
